# Assays:
# [1] = test system: E. tenella lectin; test: Hemagglutination inhibition assay, lectin of E. tenella sporozoite lysate (rabbit erythrocytes); format: biochemical, Eimeria tenella; details: minimum concentration inhibiting 4 hemagglutination units of lectin; 2% rabbit erythrocytes, room temperature, 60 minutes
# Text: (§1) The lectin activity is preferably determined by a hemagglutination assay of rabbit erythrocytes. It is desirably performed in "U" well microtiter plates using lysates prepared from the parasites of interest. The sporozoites of the parasite of interest are washed three times in phosphate buffered saline (PBS), and adjusted to a concentration of 1×10^7 /ml. They are lysed by sonication in "Branson" sonicator; cleared of particulate material by filtration; and assayed for lectin activity using a conventionally known hemagglutination assay. In this assay, 2% rabbit erythrocytes in PBS are added to serial doubling dilutions of the prepared test lysate in PBS containing 2 mg/ml of bovine serum albumin (BSA) and incubated at 23° C. (i.e., room temperature) for 1 hour. Lectin titer is defined as the reciprocal of the highest agglutinating dilution as determined by direct observation, which is defined as one agglutinating unit.
# (§2) Sugar specificity and characterization is determined by a standard hemagglutination inhibition assay. 2% rabbit erythrocytes are added to serial doubling dilutions of the sugar-comprising test compound in PBS containing 2 mg/ml BSA and 4 hemagglutination units of lectins; followed by incubation at room temperature for 60 minutes. The minimum inhibitory concentration of the test compound is defined as the minimum concentration which is required for inhibiting 4 hemagglutination units of lectins. The following represent examples of suitable test compounds: (1) glycoproteins such as fetuine, bovine submaxillary mucin, hog gastric mucin, and -1- acid glycoprotein; (2) monosaccharides such as arabinose, fucose, glucose, galactose, mannose, N-acetylglucosamine, and N-acetylgalactosamine and their derivatives; and (3) oligosaccharides including chitobiose and chitotetrose.
# [2] = test system: E. acervulina lectin; test: Hemagglutination inhibition assay, lectin of E. acervulina sporozoite lysate (rabbit erythrocytes); format: biochemical, Eimeria acervulina; details: minimum concentration inhibiting 4 hemagglutination units of lectin; 2% rabbit erythrocytes, room temperature, 60 minutes
# Text: as §1, §2
# [3] = test system: E. maxima lectin; test: Hemagglutination inhibition assay, lectin of E. maxima sporozoite lysate (rabbit erythrocytes); format: biochemical, Eimeria maxima; details: minimum concentration inhibiting 4 hemagglutination units of lectin; 2% rabbit erythrocytes, room temperature, 60 minutes
# Text: as §1
# Sugar specificity and characterization is determined by a standard hemagglutination inhibition assay. 2% rabbit erythrocytes are added to serial doubling dilutions of the sugar-comprising test compound in PBS containing 2 mg/ml BSA and 4 hemagglutination units of lectins; followed by incubation at room temperature for 60 minutes. […]
# [4] = test system: embryonic chick kidney cells; test: 3H uracil counts of host cells with fetuin, no parasite; format: cell-based; details: Host Cells + 15 mg/ml Fetuin, mean of eight cultures
# Protocol: (§3) The sporozoites are then pretreated for one hour in cell culture nutrient (Waymouth's MAB 87/3, without serum) containing various concentration of inhibiting sugars, such as 0.1, 1.0, and 10.0 mg/ml fetuine, before being inoculated onto 24-48 hour primary cultures of embryonic chick kidney cells prepared in 24 or 96 well plates. Treatment with the inhibiting sugar, such as fetuine, is continuous at the tested concentration during the incubation period, allowing the parasite development to proceed for 48 or 96 hours. Nutrient is changed every 48 hours. Because parasites developing in cell culture, but not the host cells, take up ^3 H uracil, add 2 u Ci to each well in a 96 well plate 18 to 24 hours beore counting by liquid scintillation. Nutrient is removed from the parasitized cell cultures which are then treated with PBS solution, pH 7.6-7.8, containing 0.5% trypsin and 0.022% EDTA to detach the cells from the culture vessel, and harvested with a PHD Cell Harvester (Cambridge Instrument) onto glass fiber filter discs. Individual discs are placed into scintillation vials with 3.5 ml Toluene (plus 5.262 grams per 4 liters of PPO [2,5-diphenyloxazole]) and samples are then counted in a Beckman scintillation counter.
# [5] = test system: E. tenella; test: Inhibition of E. tenella development in cell culture (3H uracil uptake, Schmatz et al.); format: cell-based, Eimeria tenella; details: for Scintillation Counts (24 hr), Trial 1 / Scintillation Counts (24 hr), Trial 2: 96 hours development, mean of eight cultures
# Protocol: A series of experimental assays were performed to measure the in vitro inhibition of Coccidia infections by compositions comprising at least one sugar. The inhibition assay is one developed by Schmatz et al. [J. Protozology 33:109-114 (1986)] in which inhibition of sporozoite development is correlated with a decrease in ^3 H uracil uptake by the host cells.
# Sporozoites are excysted aseptically from sterile coccidis oocysts, cleaned of debris by passage through a cellulose or glass wool column, counted, and diluted to a concentration of approximately 2.5×10^5 sporozoites per ml.
# as §3
# [6] = Host Cells + Parasite + 5 mg/ml Fetuin
# [7] = Host Cells + Parasite + 10 mg/ml Fetuin
# [8] = Host Cells + Parasite + 15 mg/ml Fetuin
Molecule,"Lowest Concentration that Inhibited Lectin Agglutination, E. tenella [1]","Lowest Concentration that Inhibited Lectin Agglutination, E. acervulina [2]",also measured
COC1O[C@H](CO)[C@@H](O)[C@H](O)[C@H]1O (stereo partly drawn) [1-o-CH3 -D-Glucoside],4.1 mg/mL,–,–
Hog Gastric Mucin,0.125 mg/mL,0.5 mg/mL,–
O=C[C@@H](O)[C@H](O)[C@H](O)CO [Arabinose],–,25.0 mg/mL,–
Chitobiose,1.25 mg/mL,–,–
"C[C@@H]1OC(O)[C@@H](O)[C@H](O)[C@@H]1O (single isomer, unassigned) [L(-)-Fucose]",1.25 mg/mL,–,–
Bovine Submaxillary Mucin [Bovine Submaxillary Mucin (BSM)],0.083 mg/mL,0.03 mg/mL,–
Acid Glycoprotein,1.25 mg/mL,0.5 mg/mL,–
O=[N+]([O-])c1ccc(OC2O[C@H](CO)[C@@H](O)[C@H](O)[C@H]2O)cc1 (stereo partly drawn) [P-Nitro-o-D-Glucoside],12.5 mg/mL,–,–
CC(=O)N[C@H]1[C@H](O[C@H]2[C@H](O)[C@@H](NC(C)=O)C(O)O[C@@H]2CO)O[C@H](CO)[C@@H](O[C@@H]2O[C@H](CO)[C@@H](O[C@@H]3O[C@H](CO)[C@@H](O)[C@H](O)[C@H]3NC(C)=O)[C@H](O)[C@H]2NC(C)=O)[C@@H]1O (stereo partly drawn) [Chitotetrose],0.03 mg/mL,–,–
"Fetuin (protein, UniProt P12763 19-359, looked up, glycoprotein) Alpha-2-HS-glycoprotein: IPLDPVAGYKEPACDDPDTEQAALAAVDYINKHLPRGYKHTLNQIDSVKVWPRRPTGEVYDIEIDTLETTCHVLDPTPLANCSVRQQTQHAVEGDCDIHVLKQDGQFSVLFTKCDSSPDSAEDVRKLCPDCPLLAPLNDSRVVHAVEVALATFNAESNGSYLQLVEISRAQFVPLPVSVSVEFAVAATDCIAKEVVDPTKCNLLAEKQYGFCKGSVIQKALGGEDVRVTCTLFQTQPVIPQPQPDGAEAEAPSAVPDAAGPTPSAAGPPVASVVVGPSVVAVPLPLHRAHYDLRHTFSGVASVESSSGEAFHVGKTPIVGQPSIPGGPVRLCPGRIRYFKI",0.078 mg/mL,0.13 mg/mL,"Lowest Concentration that Inhibited Lectin Agglutination, E. maxima [3]: 0.4 mg/mL; Scintillation Counts (24 hr), Trial 1 [4]: 7,826.4; Scintillation Counts (24 hr), Trial 2 [4]: 1,942.7; Scintillation Counts (24 hr), Trial 1 [5, 6]: 8,135.0; Scintillation Counts (24 hr), Trial 2 [5, 6]: 1,394.7; Scintillation Counts (24 hr), Trial 1 [5, 7]: 8,625.6; Scintillation Counts (24 hr), Trial 2 [5, 7]: 1,556.4; Scintillation Counts (24 hr), Trial 1 [5, 8]: 4,328.3; Scintillation Counts (24 hr), Trial 2 [5, 8]: 796.1; 3H uracil uptake, inhibition of E. tennella development (in words) ([5]; summary of Table E2): substantial reductions"

# From patent US5141925A, “Vivo methods for treating coccidiosis” (Trustees of Tufts College, priority 1990, dated 1992)
